Results taken from patent publication US12440435B2, “Solubilization of poorly soluble cooling substances” (SYMRISE AG, priority 2018, dated 2025).

Test: Dissolving the cooling agent in a solvent with stepwise heating, then cooling to room temperature and observing crystallisation
Format: physicochemical

COc1ccc(NC(=O)[C@@H]2C[C@H](C)CC[C@H]2C(C)C)cc1 [(1R,2S,5R)-N-(4-methoxyphenyl)-5-methyl-2-(1-methylethyl)-cyclohexane-carboxamide]
amount of cooling agent that can be dissolved (in 2-hydroxypropyl (2-isopropyl-5-methyl-cyclohexyl) carbonate, (2-isopropyl-5-methyl-cyclohexyl) 2-hydroxypropanoate or a mixture of both, based on the total weight of the composition): up to 12 % by weight | solubility in medium-chain triglycerides (medium-chain triglycerides as solvent, even at 60° C.): insoluble
